Source: the kinase profiling compilation of Christmann-Franck et al. (2016)

Legend:
Experiment in all cases: radiometric filter-binding kinase assay, Kinase HotSpot
Details in all cases: compound 0.5 µM; ATP 10 µM
[1] = molecular target: NEK6 (human) (UniProt Q9HC98)
[2] = molecular target: STK24 (human) (UniProt Q9Y6E0)
[3] = molecular target: PLK1 (human) (UniProt P53350)
[4] = molecular target: GSG2 (human) (UniProt Q8TF76)
[5] = molecular target: HIPK2 (human) (UniProt Q9H2X6)
[6] = molecular target: RPS6KA6 KD1 KD2 (human) (UniProt Q9UK32)
[7] = molecular target: WNK2 (human) (UniProt Q9Y3S1)
[8] = molecular target: TXK (human) (UniProt P42681)
[9] = molecular target: MAP2K1 (human) (UniProt Q02750)
[10] = molecular target: RPS6KB2 (human) (UniProt Q9UBS0)
[11] = molecular target: DCLK2 (human) (UniProt Q8N568)
[12] = molecular target: STK4 (human) (UniProt Q13043)
[13] = molecular target: BMX (human) (UniProt P51813)
[14] = molecular target: PLK3 (human) (UniProt Q9H4B4)
[15] = molecular target: ITK (human) (UniProt Q08881)
[16] = molecular target: YES1 (human) (UniProt P07947)
[17] = molecular target: CDC42BPB (human) (UniProt Q9Y5S2)
[18] = molecular target: KDR (human) (UniProt P35968)
[19] = molecular target: CLK4 (human) (UniProt Q9HAZ1)
[20] = molecular target: ERBB2 (human) (UniProt P04626)
[21] = molecular target: CDK9 CCNK (human) (UniProt O75909+P50750)
[22] = molecular target: AURKA (human) (UniProt O14965)
[23] = molecular target: MAP3K9 (human) (UniProt P80192)
[24] = molecular target: DSTYK (human) (UniProt Q6XUX3)
[25] = molecular target: FES (human) (UniProt P07332)
[26] = molecular target: HCK (human) (UniProt P08631)
[27] = molecular target: PRKACA (human) (UniProt P17612)
[28] = molecular target: PRKCA (human) (UniProt P17252)
[29] = molecular target: SRC (human) (UniProt P12931)
[30] = molecular target: DAPK1 (human) (UniProt P53355)
[31] = molecular target: BTK (human) (UniProt Q06187)
[32] = molecular target: MARK3 (human) (UniProt P27448)
[33] = molecular target: PRKCB1 (human) (UniProt P05771)
[34] = molecular target: FGR (human) (UniProt P09769)
[35] = molecular target: WEE1 (human) (UniProt P30291)
[36] = molecular target: MST4 (human) (UniProt Q9P289)
[37] = molecular target: PTK2B (human) (UniProt Q14289)
[38] = molecular target: FGFR3 (human) (UniProt P22607)
[39] = molecular target: DYRK2 (human) (UniProt Q92630)
[40] = molecular target: EPHA5 (human) (UniProt P54756)
[41] = molecular target: SRPK3 (human) (UniProt Q9UPE1)
[42] = molecular target: CSNK1D (human) (UniProt P48730)

Chain of YES1 (human) (P07947 whole entry, looked up): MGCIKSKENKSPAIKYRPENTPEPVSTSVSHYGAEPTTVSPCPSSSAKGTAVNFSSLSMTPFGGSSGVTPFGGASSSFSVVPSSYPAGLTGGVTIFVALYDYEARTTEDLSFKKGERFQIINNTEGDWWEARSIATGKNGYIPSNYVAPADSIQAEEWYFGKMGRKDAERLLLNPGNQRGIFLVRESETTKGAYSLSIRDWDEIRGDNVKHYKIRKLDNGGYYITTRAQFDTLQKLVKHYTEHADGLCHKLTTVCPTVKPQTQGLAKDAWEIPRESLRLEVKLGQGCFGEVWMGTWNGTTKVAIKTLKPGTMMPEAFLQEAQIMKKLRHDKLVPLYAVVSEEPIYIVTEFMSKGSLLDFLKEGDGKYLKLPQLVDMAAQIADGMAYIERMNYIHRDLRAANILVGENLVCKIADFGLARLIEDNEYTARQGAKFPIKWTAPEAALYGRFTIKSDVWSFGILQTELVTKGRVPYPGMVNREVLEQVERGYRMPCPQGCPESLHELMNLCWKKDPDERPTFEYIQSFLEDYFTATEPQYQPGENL
Chain of WNK2 (human) (Q9Y3S1 whole entry, looked up): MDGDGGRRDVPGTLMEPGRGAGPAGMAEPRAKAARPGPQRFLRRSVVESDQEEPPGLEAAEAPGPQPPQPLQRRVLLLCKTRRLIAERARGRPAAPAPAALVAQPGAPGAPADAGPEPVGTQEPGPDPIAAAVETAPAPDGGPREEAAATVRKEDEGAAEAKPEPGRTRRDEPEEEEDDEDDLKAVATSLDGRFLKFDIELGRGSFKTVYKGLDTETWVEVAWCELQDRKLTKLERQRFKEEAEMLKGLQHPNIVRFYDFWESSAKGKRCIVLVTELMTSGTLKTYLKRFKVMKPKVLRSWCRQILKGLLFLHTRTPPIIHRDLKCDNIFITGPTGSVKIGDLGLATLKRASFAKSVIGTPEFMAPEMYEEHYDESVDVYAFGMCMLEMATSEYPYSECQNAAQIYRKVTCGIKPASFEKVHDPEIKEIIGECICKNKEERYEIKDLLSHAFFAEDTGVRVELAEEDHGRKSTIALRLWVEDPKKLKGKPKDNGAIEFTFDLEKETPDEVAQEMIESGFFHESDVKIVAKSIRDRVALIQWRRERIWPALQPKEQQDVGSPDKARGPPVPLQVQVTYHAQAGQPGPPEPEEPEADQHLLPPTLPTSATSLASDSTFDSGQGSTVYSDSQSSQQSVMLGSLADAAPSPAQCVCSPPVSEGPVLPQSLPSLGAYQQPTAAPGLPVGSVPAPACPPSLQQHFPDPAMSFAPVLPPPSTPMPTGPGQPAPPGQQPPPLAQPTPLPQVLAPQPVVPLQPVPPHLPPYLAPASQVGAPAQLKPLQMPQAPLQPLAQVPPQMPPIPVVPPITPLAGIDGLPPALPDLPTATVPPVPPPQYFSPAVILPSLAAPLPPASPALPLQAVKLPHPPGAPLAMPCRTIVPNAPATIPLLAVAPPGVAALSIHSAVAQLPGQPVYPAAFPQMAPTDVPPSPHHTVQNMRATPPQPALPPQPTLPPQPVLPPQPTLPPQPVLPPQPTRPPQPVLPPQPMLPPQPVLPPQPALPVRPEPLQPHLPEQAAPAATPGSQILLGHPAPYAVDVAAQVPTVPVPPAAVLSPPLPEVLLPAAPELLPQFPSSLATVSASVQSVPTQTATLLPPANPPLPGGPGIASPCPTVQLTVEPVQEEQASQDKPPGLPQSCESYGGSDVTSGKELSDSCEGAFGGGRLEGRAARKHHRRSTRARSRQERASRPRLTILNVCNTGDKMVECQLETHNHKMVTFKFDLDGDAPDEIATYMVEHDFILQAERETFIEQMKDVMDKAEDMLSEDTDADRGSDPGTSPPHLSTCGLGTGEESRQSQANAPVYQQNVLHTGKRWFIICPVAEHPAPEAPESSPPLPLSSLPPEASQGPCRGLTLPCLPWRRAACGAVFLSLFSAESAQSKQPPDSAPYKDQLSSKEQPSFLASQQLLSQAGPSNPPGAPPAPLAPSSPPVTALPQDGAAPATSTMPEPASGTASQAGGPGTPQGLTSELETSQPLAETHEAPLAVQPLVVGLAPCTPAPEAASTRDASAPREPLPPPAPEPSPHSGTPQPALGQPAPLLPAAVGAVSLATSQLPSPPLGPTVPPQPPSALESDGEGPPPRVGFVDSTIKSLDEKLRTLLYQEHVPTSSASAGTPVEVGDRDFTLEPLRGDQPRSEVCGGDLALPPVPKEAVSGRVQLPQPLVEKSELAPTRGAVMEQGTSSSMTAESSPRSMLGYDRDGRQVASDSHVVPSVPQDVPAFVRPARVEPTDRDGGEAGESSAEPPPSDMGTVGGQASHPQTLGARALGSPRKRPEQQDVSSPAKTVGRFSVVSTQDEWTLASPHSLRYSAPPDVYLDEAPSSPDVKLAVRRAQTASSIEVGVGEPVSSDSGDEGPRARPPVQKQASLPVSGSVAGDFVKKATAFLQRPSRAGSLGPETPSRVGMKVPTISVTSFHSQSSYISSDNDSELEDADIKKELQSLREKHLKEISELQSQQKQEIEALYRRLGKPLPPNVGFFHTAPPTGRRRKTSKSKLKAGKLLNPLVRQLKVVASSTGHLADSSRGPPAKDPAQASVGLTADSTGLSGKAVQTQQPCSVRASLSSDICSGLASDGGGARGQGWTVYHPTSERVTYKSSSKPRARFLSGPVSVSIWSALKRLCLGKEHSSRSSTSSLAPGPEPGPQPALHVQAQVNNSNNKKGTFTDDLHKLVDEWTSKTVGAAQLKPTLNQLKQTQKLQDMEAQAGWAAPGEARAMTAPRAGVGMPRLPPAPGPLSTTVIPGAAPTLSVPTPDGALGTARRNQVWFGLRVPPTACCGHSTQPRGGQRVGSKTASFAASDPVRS
Chain of FGR (human) (P09769 whole entry, looked up): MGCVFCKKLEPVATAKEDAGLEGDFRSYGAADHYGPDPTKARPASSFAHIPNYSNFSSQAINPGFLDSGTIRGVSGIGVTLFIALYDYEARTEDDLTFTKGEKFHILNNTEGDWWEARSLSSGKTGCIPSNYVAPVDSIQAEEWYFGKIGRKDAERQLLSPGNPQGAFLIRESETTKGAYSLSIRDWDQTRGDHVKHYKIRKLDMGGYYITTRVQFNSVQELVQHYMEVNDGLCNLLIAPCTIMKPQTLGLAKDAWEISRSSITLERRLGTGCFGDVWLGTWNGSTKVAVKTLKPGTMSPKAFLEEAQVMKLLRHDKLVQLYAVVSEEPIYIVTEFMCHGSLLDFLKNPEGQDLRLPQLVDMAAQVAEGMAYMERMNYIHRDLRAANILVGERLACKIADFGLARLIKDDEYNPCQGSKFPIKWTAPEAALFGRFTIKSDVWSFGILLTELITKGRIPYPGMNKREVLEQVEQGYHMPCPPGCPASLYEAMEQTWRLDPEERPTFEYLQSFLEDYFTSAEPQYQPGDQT
Chain of HCK (human) (P08631 whole entry, looked up): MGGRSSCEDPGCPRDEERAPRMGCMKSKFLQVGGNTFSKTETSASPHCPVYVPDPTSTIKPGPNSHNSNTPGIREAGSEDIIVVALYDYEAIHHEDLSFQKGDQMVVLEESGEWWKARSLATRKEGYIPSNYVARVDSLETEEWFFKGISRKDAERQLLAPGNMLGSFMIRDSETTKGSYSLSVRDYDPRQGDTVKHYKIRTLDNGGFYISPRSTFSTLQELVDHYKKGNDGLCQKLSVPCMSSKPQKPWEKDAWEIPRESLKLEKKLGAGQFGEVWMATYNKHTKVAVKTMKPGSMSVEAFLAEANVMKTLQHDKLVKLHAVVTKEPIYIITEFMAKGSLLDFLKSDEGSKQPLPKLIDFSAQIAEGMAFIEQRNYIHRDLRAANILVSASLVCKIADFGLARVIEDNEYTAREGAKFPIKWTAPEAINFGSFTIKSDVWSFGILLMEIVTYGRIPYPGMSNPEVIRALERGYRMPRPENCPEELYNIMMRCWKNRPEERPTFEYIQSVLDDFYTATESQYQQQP
Chain of STK24 (human) (Q9Y6E0 whole entry, looked up): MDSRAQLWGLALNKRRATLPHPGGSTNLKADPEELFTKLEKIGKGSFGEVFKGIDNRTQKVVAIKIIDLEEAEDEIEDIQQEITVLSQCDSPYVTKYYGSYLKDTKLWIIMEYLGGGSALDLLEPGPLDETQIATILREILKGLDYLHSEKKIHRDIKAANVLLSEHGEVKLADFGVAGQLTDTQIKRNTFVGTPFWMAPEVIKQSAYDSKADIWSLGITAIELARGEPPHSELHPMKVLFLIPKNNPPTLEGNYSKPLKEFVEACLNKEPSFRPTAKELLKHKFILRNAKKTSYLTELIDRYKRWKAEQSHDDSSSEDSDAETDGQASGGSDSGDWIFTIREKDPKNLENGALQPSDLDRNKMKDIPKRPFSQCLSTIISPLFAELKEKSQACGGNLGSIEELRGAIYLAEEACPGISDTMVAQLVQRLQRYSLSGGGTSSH

COc1ccc(CNC(=O)Nc2ncc([N+](=O)[O-])s2)cc1
residual activity [1]: 100% | residual activity [2]: 93.6% | residual activity [3]: 102% | residual activity [4]: 90% | residual activity [5]: 103% | residual activity [6]: 99.8% | residual activity [7]: 104% | residual activity [8]: 96.9% | residual activity [9]: 101% | residual activity [10]: 93.6% | residual activity [11]: 99.2% | residual activity [12]: 99.8% | residual activity [13]: 90.8% | residual activity [14]: 101% | residual activity [15]: 89.5% | residual activity [16]: 96.1% | residual activity [17]: 93.5% | residual activity [18]: 85.7% | residual activity [19]: 92.8% | residual activity [20]: 96.9% | residual activity [21]: 82.8% | residual activity [22]: 97.4% | residual activity [23]: 101% | residual activity [24]: 96.2% | residual activity [25]: 97.7% | residual activity [26]: 96.7% | residual activity [27]: 96.9% | residual activity [28]: 61.9% | residual activity [29]: 101% | residual activity [30]: 105% | residual activity [31]: 102% | residual activity [32]: 105% | residual activity [33]: 103% | residual activity [34]: 92.4% | residual activity [35]: 95.2% | residual activity [36]: 113% | residual activity [37]: 83.1% | residual activity [38]: 108% | residual activity [39]: 103% | residual activity [40]: 117% | residual activity [41]: 100%

CC(C)[C@H](CO)Nc1nc(Nc2cc(N)cc(Cl)c2)c2ncn(C(C)C)c2n1
residual activity [1]: 111% | residual activity [2]: 75.9% | residual activity [3]: 54.9% | residual activity [4]: 99.9% | residual activity [5]: 94.3% | residual activity [6]: 46.1% | residual activity [7]: 112% | residual activity [8]: 42.5% | residual activity [9]: 91.3% | residual activity [10]: 98.2% | residual activity [11]: 105% | residual activity [12]: 63.6% | residual activity [13]: 81.9% | residual activity [14]: 62.8% | residual activity [15]: 80.2% | residual activity [16]: 7.03% | residual activity [17]: 98.4% | residual activity [18]: 101% | residual activity [19]: 16.5% | residual activity [20]: 92.9% | residual activity [22]: 80.5% | residual activity [23]: 7.81% | residual activity [42]: 65.7% | residual activity [24]: 93.1% | residual activity [25]: 69.2% | residual activity [26]: 27.3% | residual activity [27]: 101% | residual activity [28]: 66.1% | residual activity [29]: 3.75% | residual activity [30]: 95.3% | residual activity [31]: 33% | residual activity [32]: 85.2% | residual activity [33]: 98.8% | residual activity [34]: 15% | residual activity [35]: 70.8% | residual activity [36]: 67.8% | residual activity [37]: 63.6% | residual activity [38]: 79.4% | residual activity [39]: 93.2% | residual activity [40]: 64% | residual activity [41]: 37.7%
